Measurements: US20230346735A1, “Nutritional Composition Comprising Carnitine and Method for Treating or Preventing an Infection in a Mammal” (priority 2020, published 2023)

Key:
ACE-2 [1] = test: Rat plasma serum ELISA, ACE-2; type: in vivo; settings: exercised rats, FIG. 5B
C-Reactive Protein (CRP) = test: Human study, serum ELISA, CRP; type: in vivo
Method: (§1) A human study was run with a total of 80 healthy male and female subjects ranging from 21 to 65 years of age, who were active (i.e. 30 minutes per day of moderate activity, 3 days per week) are randomized into two groups. […] Seventy-three subjects completed the trial and biomarker data were analyzed from the sera of the 73 completers. Sera were collected for analysis of C-Reactive Protein (CRP), ACE 1, ACE 2, TMPRSS 2, the Tumor Necrosis Factor alpha (TNF-alpha), and Furin at baseline in the beginning of the trial, at week 5 and 48 hr after an exercise challenge as described (Clinicaltrials.gov NCT04420377). The exercise challenge serves as surrogate to the inflammation stimulus.
(§2) To obtain human sera, venous blood was extracted by venipuncture of the antecubital vein using a 21-gauge syringe and collected into a 10 mL EDTA vacutainer tube (BD Vacutainer®, Becton, Dickinson and Company, Franklin Lakes, NJ) by a certified phlebotomist. […] Human ACE-1, ACE-2, TMPRSS2, Furin, CRP and TNF-alpha protein levels were assessed using commercially available ELISA kits, according the manufacturer recommendations, ACE-1 (R&D systems Inc., Minneapolis, MN, USA), ACE-2 (RayBiotech inc., Peachtree Corners, GA), TMPRSS2 (Novus Biologicals, Littleton, CO), CRP (R&D Systems Inc., Minneapolis, MN), TNF-alpha (Novus Biologicals, Littleton, CO), and Furin (Sigma Aldrich, St. Louis, MO). […]

Furin = test: Human study, serum ELISA, Furin; type: in vivo; settings: 2 g daily, 5 weeks, 48 hours after exercise challenge, versus placebo
Method: as §1, §2

ACE-1 = ACE-1 mRNA expression in Calu-3, RT real-time PCR; type: cell-based, human; settings: Calu-3, 50 to 1,000 uM, 24 hr pre-treatment
TNF-alpha = test: Human study, serum ELISA, TNF-alpha; type: in vivo
Method: as §1, §2

TMPRSS2 [2] = test: TMPRSS2 mRNA expression in Calu-3, RT real-time PCR; type: cell-based, human; settings: 24 hr
Method: To quantify the human gene expression, Calu-3 seeded in a 12-well plate (220,000 cells) were stimulated with 100 uM, 500 uM and 1000 uM Carnitine alone for 24 h. RNA was extracted using TRIzol (Qiagen) as per standard protocol and total RNA was reverse transcribed using SuperScript II RT (Invitrogen). Expression levels of ACE-2 and TMPRSS2 were evaluated by SYBR real-time PCR using gene-specific primers as previously reported (Ma et al., Eye 2020;34:1212). GAPDH was used as an internal normalizer. […] Fold change in expression relative to that in untreated cells was determined using the standard ddCt method.

TMPRSS2 [3] = test: Human study, serum ELISA, TMPRSS2; type: in vivo; settings: 2 g daily, 5 weeks, 48 hours after exercise challenge, versus placebo
Method: as §1, §2

ACE-2 [4] = test: Human study, serum ELISA, ACE-2; type: in vivo
Method: as §1, §2

ACE-2 [5] = type: in vivo, rat
Method: After a week of the adaptation period, the rats were divided into eight equal groups containing seven rats each.
Groups 1 and 2 were not subjected to an exercise routine. Groups 3-8 were subjected to an exercise regimen consisting of a week training period with an incremental exercise capacity described below. After the week training period the exercise regimen followed was each rat in Groups 3-8 were subjected to 6 weeks of running at 25 m/min during 45 min every day. […] These correspond to 0, 250, 500, 1000, 2000 and 4000 mg per day for humans, respectively.
After the 6-week exercise regimen was completed, muscle, lung, plasma and liver tissue samples were taken from these rats. The ACE-2 analysis of the tissue samples are subjected to the following test.
To determine the protein accumulation in the liver, muscle and lung samples, a Western Blotting test was used. Each of the tissue samples of the same group were pooled, homogenized, and sonicated in lysis buffer supplemented with 1X protease and phosphatase inhibitor cocktail (#5872, Cell Signaling). Total protein content was detected with Qubit 2.0 Fluorometer according to the manufacturer’s protocol (Invitrogen, Life Technologies Corporation, Carlsbad, CA, USA). Equal amounts of protein (20 µg) were size-fractionated using any-kD Mini-Protean TGX gel electrophoresis and then transferred to a nitrocellulose membrane using the Trans-Blot Turbo Transfer System (Bio-Rad, Life Sciences Research). Thereafter, membranes were blocked in 5% nonfat milk in Tris-buffered saline (TBS) containing 0.1% Tween (TBS-T; blocking solution) for 1 h at room temperature, washed in TBS-T, and incubated overnight with ACE-2 (Abcam, Cambridge, UK). The following day, membranes were washed with TBS-T and then incubated with horseradish peroxidase-conjugated goat anti-rabbit (Abcam, Cambridge, UK) or goat anti-mouse (Abcam, Cambridge, UK) secondary antibody (diluted 1:1000) for 1 h. Individual blots were performed at least three times. Protein loading was controlled by stripping and re-probing the nitrocellulose membrane with an anti-β-actin antibody (Abcam, Cambridge, UK). Protein levels were analyzed densitometrically using an image analysis system (Image J; National Institute of Health, Bethesda, MD, USA), corrected with values determined on β-actin blots and expressed as relative values compared with the control group.
To determine the mRNA expression levels of ACE-2 in the liver, lung and muscle samples a total RNA extraction and specific mRNA quantification was conducted by reverse transcription-polymerase chain reaction (RT-qPCR). Gene expressions were done by quantitative polymerase chain reaction (qPCR). […]

## C[N+](C)(C)C[C@H](O)CC(=O)[O-] [L-carnitine]
ACE-2 [1]
  serum ACE-2: reduction
C-Reactive Protein (CRP); at 48 hr-Post, p<0.005
  plasma CRP concentration, mean diff Group A versus Group B: -0.55 mg/L
C-Reactive Protein (CRP); from baseline after 5 weeks of supplementation, compared to placebo group
  serum CRP levels: significantly lower
Furin
  Furin serum levels: significant decrease
ACE-1
  ACE-1 mRNA levels: didn’t not change
TNF-alpha; human serum, any time point, b137
  TNF-alpha levels: No change occurred
TNF-alpha; human, group A, Wk5 compared to BL, p<0.01
  TNF-α: lower
TMPRSS2 [2]; Calu-3, 500 uM
  TMPRSS2 mRNA decrease: at least 75%
TMPRSS2 [2]; Calu-3, between 50-100 uM
  TMPRSS2 mRNA increase: 1.5-4 fold
TMPRSS2 [3]
  TMPRSS2 serum levels: significant decrease
ACE-2 [4]; 2 g daily, 5 weeks, 48 hours after exercise challenge, versus placebo
  ACE-2 serum levels: significant decrease
ACE-2 [4]; group A, from baseline compared to Wk5, p=0.046
  decrease in ACE-2: 8%
ACE-2 [5]; exercised rats, oral, 6 weeks
  dose of maximum effect on ACE-2, TMPRSS2 and Furin levels: 200 mg/kg
ACE-2 [5]; exercised rats, tissues, versus exercise control
  ACE-2 mRNA levels: dose-dependent decrease
ACE-2 [5]; exercised rats, western blotting
  ACE-2 protein level: return to the baseline control
ACE-2 [5]; rats without exercise (inflammation), 200 mg/kg
  ACE-2 levels: does not affect these receptors
